Test results reported in patent US11808760B1, “System and methods for in vitro structural toxicity testing” (CURI BIO, INC., priority 2019, dated 2023).

What was measured:
liver cells [1] = tested on: liver cells
liver cells [2] = experiment: AI (CNN) structural toxicity assay, aspirin on liver cells (FIG. 6); type: cell-based
From the text: In an exemplary embodiment of the subject technology, a series of 2-class neural network training steps may be used, where a separate model is created for each drug dose compared to its control. As will be appreciated, a high level of sensitivity in detecting structural changes will be generated. As a result, aspects of the subject technology successfully capture obvious phenotypes, such as cell damage and death, as well as subtle phenotypes, such as changes to sarcomere organization or distribution of mitochondria.
As detailed in the following sections, the input imaging data is processed and may be augmented before training deep neural networks. For each test condition, images from a well are dedicated for validation and the rest are used for training. The performance of each training may be used on the validation wells as the measure of structural change. […] One the other hand, if the achieved accuracy is high, it means that the trained neural network was able to differentiate between the drug-treated images at dose i versus the vehicle images, and the strength of the change is calculated from the distribution of class probabilities.
A 2-class deep neural network may be trained (530) for image classification. The higher layers of the neural network may be allowed to learn the image features. […]

iPSC-derived hepatocytes = experiment: AI (CNN) structural toxicity assay, validation z-factor versus dose (FIG. 7); type: cell-based; settings: reference vehicle (DMSO), doses 0.01-30 uM, 18-layer residual network
Method: When using multi-channel images, the channels may include brightfield images, and fluorescence images captured at different wavelengths in order to visualize different cellular structures. As one example of an experimental setup, the cells are iPSC-derived hepatocytes, the drug under investigation is tamoxifen (a drug with known liver toxicity), dose X is 0.01 uM, dose Y is 0.10 uM, dose Z is 1.00 uM, the cells are fixed and stained with phalloidin-conjugated fluorescent dyes, and the imaging is performed with an inverted fluorescence microscopy system, capturing multiple images at each individual well.
A 2-class deep neural network may be trained (530) for image classification. The higher layers of the neural network may be allowed to learn the image features. The training may be performed with an initial learning rate of 0.01 for 20 epochs and may be repeated three times. For each training session, the final neural network may be selected from the epoch with the highest validation accuracy.
To generate the input data to train the neural network, each image may be processed and augmented. […]

## CC(=O)N[C@@H](CS)C(=O)O [acetylcysteine]
Liver cells [1]
  structural damage of liver cells over time: little damage to the cells

## CC(=O)Oc1ccccc1C(=O)O [aspirin]
Liver cells [2]
  structural changes in the cells: no, or minimal, structural changes

## COc1cccc2c1C(=O)c1c(O)c3c(c(O)c1C2=O)C[C@@](O)(C(=O)CO)C[C@@H]3O[C@H]1C[C@H](N)[C@H](O)[C@H](C)O1 [doxorubicin]
Liver cells [1]
  structural damage of liver cells over time: changes in the structural integrity of the cells

## CC/C(=C(\c1ccccc1)c1ccc(OCCN(C)C)cc1)c1ccccc1 [tamoxifen]
iPSC-derived hepatocytes
  dose at which validation z-factors show values above -1 (start of structural changes between drug-treated cells and reference cells): 5 µM
Liver cells [1]
  structural damage of liver cells over time: noticeable structural damage
